# Laboratory results: publication PMC8151276, “An Integrated Approach toward NanoBRET Tracers for Analysis of GPCR Ligand Engagement” (Molecules, 2021)
# Assays:
# Assay type in all cases: binding
# C3AR1 = target: T1, C3AR1 (Homo sapiens, UniProt Q16581); assay: NanoBRET screen HiBiT-C3AR1 in HEK293
# T1 construct: purchased Promega (in-house HiBiT-GPCR construct library, NanoBRET)
# T1 sequence (Q16581 1-482): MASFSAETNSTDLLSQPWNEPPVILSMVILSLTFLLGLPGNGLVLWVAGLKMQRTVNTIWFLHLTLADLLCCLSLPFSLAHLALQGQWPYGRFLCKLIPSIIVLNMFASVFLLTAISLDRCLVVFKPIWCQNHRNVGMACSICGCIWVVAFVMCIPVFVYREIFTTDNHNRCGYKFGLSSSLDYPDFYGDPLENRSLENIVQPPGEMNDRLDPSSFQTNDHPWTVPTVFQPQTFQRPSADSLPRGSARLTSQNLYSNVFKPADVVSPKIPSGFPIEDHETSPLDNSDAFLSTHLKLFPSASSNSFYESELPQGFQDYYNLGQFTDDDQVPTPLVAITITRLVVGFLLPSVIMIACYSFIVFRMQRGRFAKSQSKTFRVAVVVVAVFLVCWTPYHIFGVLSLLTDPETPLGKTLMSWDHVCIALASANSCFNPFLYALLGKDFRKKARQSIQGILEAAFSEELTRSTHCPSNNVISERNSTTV
# Experimental: (§1) Each tracer candidate was screened across the entire library of HiBiT-GPCR constructs using NanoBRET as the detection modality. As depicted in Figure 4A, the specificity of interactions was evaluated through decrease in BRET due to competitive displacement of a bound tracer by excess parental compound. Each tracer was analyzed for binding to each HiBiT-GPCR fusion in the absence and in the presence of competing parental compound. Briefly, HEK293 cells were transfected with HiBiT-GPCR constructs diluted into promoterless DNA to reduce expression and maximize translocation to the cell surface. Each tracer candidate was then screened at concentrations of 1 μM and 0.1 μM across cells expressing these fusions. Cells were treated for 1.5 h with tracer either alone or in the presence of 20 μM competing parental compound (i.e., control). BRET was measured upon addition of purified LgBiT and subsequent complementation with HiBiT genetically fused to a GPCR. The specificity of interactions was assessed through a decrease in BRET signal due to competitive displacement of the bound tracer. To further gauge the robustness of these interactions, the fold response over the control (i.e., BRETtracer/BRETcontrol) was calculated. We chose a 1.5-fold response, which translates to ≥7-fold signal over noise as the minimal threshold required to score an interaction as positive. […]. Below we highlight the screening results obtained for our exemplary fluorescent tracers based on Clozapine, Amitriptyline and AZD1283.
# (§2) HiBiT-GPCR DNA constructs were diluted in 10 mM Tris pH 8 to a final concentration of 0.01 μg/μL, arrayed in 96-well plates and stored at −20 °C. For transfection, HEK293 cells were suspended in Opti-MEM (without phenol red) supplemented with 2% fetal bovine serum (Seradigm) and 100 units/mL penicillin–streptomycin (Gibco) at a final concentration of 220,000 cells/mL and dispensed into white 96-well plates at 90 μL/well. Subsequent transfections and screens were carried using an Agilent Bravo Automated Liquid Handling Platform. First, the 96-well HiBiT DNA arrays were diluted 25-fold in Opti-MEM (without serum or phenol red) to a final concentration of 0.0004 μg/μL and 20 μL of the diluted DNAs were transferred into new 96-well plates. Next, promoterless carrier DNA (1 μg/μL) was diluted 25-fold (0.04 μg/μL) and then dispensed into the diluted arrays at 20 μL/well. Following brief mixing, Viafect transfection reagent (Promega) diluted 16-fold into Opti-MEM was dispensed into the plates at 40 μL/well. After mixing by pipetting, plates were incubated for 10 min on the pipetting station deck. The DNA-transfection reagent complexes were then added to plates containing cells. To facilitate the screen, 10 μL of DNA-transfection reagent complexes were added in duplicates to the top 4 and bottom 4 rows, resulting in two identical 48-well arrays per plate. Plates with transfected cells were incubated for 18–20 h at 37 °C/5% CO2. A screen of each tracer across the entire library using two different concentrations requires duplicate plates of transfected cells. Depending on the number of tracers being screened, transfections can be scaled up using the same ratios. The next day, for each tracer, four 20× screening solutions in tracer dilution buffer (Promega) were prepared: two duplicates at final concentration of 20 μM and two duplicates at a final concentration of 2 μM. A competing unmodified compound was added to one of each duplicate at a final concentration of 400 μM. The four resulting solutions were diluted 4-fold in Opti-MEM without serum or phenol red to generate 5× solutions (5 µM and 0.5 µM tracer +/− 100 μM competing compound). To screen the library, a BioTek MultiFlo FX liquid dispenser was used to dispense 22.5 µL of tracer solution to the top 4 rows and 22.5 µL tracer + competing compound solution to the 4 bottom rows. Plates were briefly mixed on an orbital shaker and incubated for 1.5 h at room temperature. […]
# CX3CR1 = target: T2, CX3CR1 (Homo sapiens, UniProt P49238); assay: NanoBRET screen HiBiT-CX3CR1 in HEK293
# T2 construct: purchased Promega (in-house HiBiT-GPCR construct library, NanoBRET)
# T2 sequence (P49238 1-355): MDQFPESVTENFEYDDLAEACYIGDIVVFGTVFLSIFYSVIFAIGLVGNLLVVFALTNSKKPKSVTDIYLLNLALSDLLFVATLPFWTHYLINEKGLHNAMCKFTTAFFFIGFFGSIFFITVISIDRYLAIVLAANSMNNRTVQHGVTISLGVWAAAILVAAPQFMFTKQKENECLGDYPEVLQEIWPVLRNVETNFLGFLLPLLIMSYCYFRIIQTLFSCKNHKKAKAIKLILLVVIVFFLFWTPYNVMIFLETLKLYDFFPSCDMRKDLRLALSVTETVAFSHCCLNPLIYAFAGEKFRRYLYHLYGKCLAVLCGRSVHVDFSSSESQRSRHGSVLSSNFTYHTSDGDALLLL
# Experimental: as §1, §2
# LHCGR = target: T3, LHCGR (Homo sapiens, UniProt P22888); assay: NanoBRET screen HiBiT-LHCGR in HEK293; conditions: LHCGR
# T3 construct: purchased Promega (in-house HiBiT-GPCR construct library, NanoBRET)
# Experimental: as §1, §2
# CCKBR = target: T4, CCKBR (Homo sapiens, UniProt P32239); assay: NanoBRET screen HiBiT-CCKBR in HEK293
# T4 construct: purchased Promega (in-house HiBiT-GPCR construct library, NanoBRET)
# T4 sequence (P32239 1-447): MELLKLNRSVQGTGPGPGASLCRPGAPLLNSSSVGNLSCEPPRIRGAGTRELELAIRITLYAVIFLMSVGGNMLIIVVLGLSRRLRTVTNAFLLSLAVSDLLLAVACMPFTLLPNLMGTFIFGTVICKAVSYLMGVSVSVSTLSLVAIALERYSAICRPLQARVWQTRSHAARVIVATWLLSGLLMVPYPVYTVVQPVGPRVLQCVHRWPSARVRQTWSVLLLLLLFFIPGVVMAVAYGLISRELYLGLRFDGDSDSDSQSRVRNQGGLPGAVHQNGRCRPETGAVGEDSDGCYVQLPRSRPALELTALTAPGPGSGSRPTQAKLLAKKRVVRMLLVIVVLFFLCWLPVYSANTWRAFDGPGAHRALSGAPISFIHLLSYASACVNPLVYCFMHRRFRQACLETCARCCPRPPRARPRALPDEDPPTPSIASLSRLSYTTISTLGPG
# Experimental: as §1, §2
# [1] = tracer at 0.1μM, listed as amitriptyline-b-2-NB590
# [2] = tracer at 1μM, listed as amitriptyline-b-2-NB590
# T3 sequence (P22888 27-699): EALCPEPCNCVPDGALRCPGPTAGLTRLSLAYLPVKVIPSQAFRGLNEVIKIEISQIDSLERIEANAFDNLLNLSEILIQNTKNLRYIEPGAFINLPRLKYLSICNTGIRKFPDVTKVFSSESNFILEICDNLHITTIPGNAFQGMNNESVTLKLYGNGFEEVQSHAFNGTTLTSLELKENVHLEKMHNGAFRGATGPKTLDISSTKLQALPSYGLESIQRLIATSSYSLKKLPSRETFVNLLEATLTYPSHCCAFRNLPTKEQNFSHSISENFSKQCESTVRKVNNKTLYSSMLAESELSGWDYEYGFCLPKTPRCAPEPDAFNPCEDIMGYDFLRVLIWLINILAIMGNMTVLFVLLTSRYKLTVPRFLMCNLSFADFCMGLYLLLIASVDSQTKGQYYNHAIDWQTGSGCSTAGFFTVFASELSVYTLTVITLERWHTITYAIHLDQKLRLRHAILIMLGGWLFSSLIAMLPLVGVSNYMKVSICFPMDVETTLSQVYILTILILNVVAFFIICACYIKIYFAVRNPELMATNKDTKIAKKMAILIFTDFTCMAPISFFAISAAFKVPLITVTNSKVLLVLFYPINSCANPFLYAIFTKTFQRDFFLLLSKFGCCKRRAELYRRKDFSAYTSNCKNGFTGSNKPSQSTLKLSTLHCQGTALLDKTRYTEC
smiles,measurement,setting,value
CCOC(=O)c1cc(C#N)c(N2CCC(C(=O)NS(=O)(=O)Cc3ccccc3/C=C/C(=O)NCCNC(=O)CCc3ccc4n3[B-](F)(F)[N+]3=C(c5ccc[nH]5)C=CC3=C4)CC2)nc1C [AZD1283-1-NB590],NanoBRET Fold Response,"C3AR1; C3AR1, 0.1μM",1.10
same,NanoBRET Fold Response,"C3AR1; C3AR1, 1μM",1.09
same,NanoBRET Fold Response,"CX3CR1; CX3CR1, 0.1μM",1.09
same,NanoBRET Fold Response,"CX3CR1; CX3CR1, 1μM",1.08
same,NanoBRET Fold Response,LHCGR; 0.1μM,1.00
same,NanoBRET Fold Response,LHCGR; 1μM,1.02
same,NanoBRET Fold Response,"CCKBR; CCKBR, 0.1μM",1.18
same,NanoBRET Fold Response,"CCKBR; CCKBR, 1μM",1.10
N#CN=C(NCCCOc1cccc(CN2CCCCC2)c1)NCCNC(=O)CCOCCOCCOCCOCCNC(=O)CCc1ccc2n1[B-](F)(F)[N+]1=C(c3ccc[nH]3)C=CC1=C2 [Aminopotentidine-2-NB590],NanoBRET Fold Response,"C3AR1; C3AR1, tracer 0.1μM",0.99
same,NanoBRET Fold Response,"C3AR1; C3AR1, tracer 1μM",1.04
same,NanoBRET Fold Response,"CX3CR1; CX3CR1, tracer 0.1μM",1.00
same,NanoBRET Fold Response,"CX3CR1; CX3CR1, tracer 1μM",1.05
same,NanoBRET Fold Response,LHCGR; tracer 0.1μM,1.03
same,NanoBRET Fold Response,LHCGR; tracer 1μM,1.00
same,NanoBRET Fold Response,"CCKBR; CCKBR, tracer 0.1μM",1.17
same,NanoBRET Fold Response,"CCKBR; CCKBR, tracer 1μM",1.04
CN(C)CCC=C1c2ccccc2CCc2ccc(C(=O)NCCNC(=O)CCOCCOCCOCCOCCNC(=O)CCc3ccc4n3[B-](F)(F)[N+]3=C(c5ccc[nH]5)C=CC3=C4)cc21 [Amitriptyline-a-2-NB590],NanoBRET Fold Response,C3AR1; tracer at 0.1μM,0.99
same,NanoBRET Fold Response,C3AR1; tracer at 1μM,1.01
same,NanoBRET Fold Response,CX3CR1; tracer at 0.1μM,1.07
same,NanoBRET Fold Response,CX3CR1; tracer at 1μM,0.99
same,NanoBRET Fold Response,CCKBR; tracer at 0.1μM,1.02
same,NanoBRET Fold Response,CCKBR; tracer at 1μM,0.98
CN(C)CCC=C1c2ccccc2CCc2ccc(C(=O)NCCNC(=O)CCOCCOCCOCCOCCNC(=O)CCc3ccc4n3[B-](F)(F)[N+]3=C(c5ccc[nH]5)C=CC3=C4)cc21 [Amitriptyline-b-2-NB590],NanoBRET Fold Response,C3AR1; [1],1.19
same,NanoBRET Fold Response,C3AR1; tracer at 1μM,1.00
same,NanoBRET Fold Response,CX3CR1; [1],1.14
same,NanoBRET Fold Response,CX3CR1; [2],0.86
same,NanoBRET Fold Response,LHCGR; tracer 0.1μM,1.05
same,NanoBRET Fold Response,LHCGR; tracer 1μM,1.00
same,NanoBRET Fold Response,CCKBR; [1],1.10
same,NanoBRET Fold Response,CCKBR; [2],1.09
CN(CCC=C1c2ccccc2CCc2ccccc21)C(=O)CCOCCOCCOCCOCCNC(=O)CCc1ccc2n1[B-](F)(F)[N+]1=C(c3ccc[nH]3)C=CC1=C2 [Amitriptyline-e-2-NB590],NanoBRET Fold Response,C3AR1; tracer at 1μM,1.02
same,NanoBRET Fold Response,CX3CR1; tracer at 1μM,0.99
same,NanoBRET Fold Response,CCKBR; tracer at 1μM,1.02
